This experiment has as its system recombinant NL4-3 virus (Renilla luciferase) in MT-2 cells. In words: HIV cell culture assay (antiviral activity, luciferase readout in infected MT-2 cells). The format is cell-based. The note with it: Renilla. The protocol: HIV cell culture assay—MT-2 cells, 293T cells and the proviral DNA clone of NL4-3 virus were obtained from the NIH AIDS Research and Reference Reagent Program. MT-2 cells were propagated in RPMI 1640 media supplemented with 10% heat inactivated fetal bovine serum (FBS), 100 ug/ml penicillin G and up to 100 units/ml streptomycin. The 293T cells were propagated in DMEM media supplemented with 10% heat inactivated FBS, 100 ug/ml penicillin G and 100 ug/ml streptomycin. A recombinant NL4-3 proviral clone, in which a section of the nef gene was replaced with the Renilla luciferase gene, was used to make the reference virus used in these studies. The recombinant virus was prepared through transfection of the recombinant NL4-3 proviral clone into 293T cells using Transit-293 Transfection Reagent from Mirus Bio LLC (Madison, Wis.). Supernatent was harvested after 2-3 days after transfection, and the amount of virus present was titered in MT-2 cells using luciferase enzyme activity as a marker. Luciferase activity was quantitated using the EnduRen Live Cell Substrate from Promega (Madison, Wis.). Antiviral activities of compounds toward the recombinant virus were quantified by measuring luciferase activity in MT-2 cells infected for 4-5 days with the recombinant virus in the presence of serial dilutions of the compound.
The 50% effective concentration (EC50) was calculated by using the exponential form of the median effect equation where (Fa)=1/[1+(ED50/drug conc.)^m](Johnson V A, Byington R T. Infectivity Assay. In Techniques in HIV Research. ed. Aldovini A, Walker B D. 71-76. New York: Stockton Press. 1990).

The mark [1] stands for this setting: NL43, read-out: Activity, antiviral activity class, recombinant NL4-3 Renilla luciferase virus in MT-2 cells.
[2] abbreviates: NL43, recombinant NL4-3 Renilla luciferase virus in MT-2 cells.

Where two headings read alike, the source gives them in different places.

Results on 24 compounds are retold here after patent US10035760B2, “Inhibitors of human immunodeficiency virus replication” (priority 2013, dated 2018).

Regarding `CCc1cccc(S(=O)(=O)NC(=O)N[C@@H](Cc2ccccc2)C(=O)N(CC)c2ccc(OC)cc2)c1` [Example 141, (S)—N-ethyl-2-(3-((3-ethylphenyl)sulfonyl)ureido)-N-(4-methoxyphenyl)-3-phenylpropanamide], the EC50 under setting [1] is under 100 nM.
Still for that read-out and setting: the result for `Cc1ccccc1S(=O)(=O)NC(=O)N[C@@H](Cc1ccccc1)C(=O)N(C)C1CCCCC1` [Example 179, (S)—N-cyclohexyl-N-methyl-3-phenyl-2-(3-(o-tolylsulfonyl)ureido)propanamide] reads 1000 to 10000 nM; that for `COc1ccc(N(C)C(=O)[C@H](CC2CCCC2)NC(=O)NS(=O)(=O)c2ccccc2C)cc1` [Example 196, (S)-3-cyclopentyl-N-(4-methoxyphenyl)-N-methyl-2-(3-(o-tolylsulfonyl)ureido)propanamide], 10000 to 100000 nM.
`Cc1ccccc1S(=O)(=O)NC(=O)N[C@@H](Cc1cc(F)cc(F)c1)C(=O)N(C)c1cccc2ncccc12` [Example CA-109, (S)-3-(3,5-difluorophenyl)-N-methyl-N-(quinolin-5-yl)-2-(3-(o-tolylsulfonyl)ureido)propanamide]: the EC50 is 100 to 1000 nM under setting [1] and 370 nM under setting [2].
With `Cc1ccccc1S(=O)(=O)NC(=O)N[C@@H](Cc1ccccc1)C(=O)N1C[C@@H]2C[C@H]1CO2` [Example 187, N—(((S)-1-((1S,4S)-2-oxa-5-azabicyclo[2.2.1]heptan-5-yl)-1-oxo-3-phenylpropan-2-yl)carbamoyl)-2-methylbenzenesulfonamide], the EC50 under setting [2] is over 33300 nM.
`CN(C(=O)[C@@H](Cc1ccccc1)NC(=O)NS(=O)(=O)c1ccccc1)c1ccc2c(c1)OCO2` [Example 86]: the EC50 under setting [1] fell in the range of 10000 to 100000 nM.
Consider `Cc1ccccc1S(=O)(=O)NC(=O)N[C@@H](Cc1ccccc1)C(=O)N(C)c1ccc2ncsc2c1` [Example CA-95, (S)—N-(benzo[d]thiazol-6-yl)-N-methyl-3-phenyl-2-(3-(o-tolylsulfonyl)ureido)propanamide], for which the EC50 under setting [1] was under 100 nM.
With `COc1ccc(N(C)C(=O)[C@H](Cn2cncn2)NC(=O)NS(=O)(=O)c2ccccc2C)cc1` [Example 193, (S)—N-(4-methoxyphenyl)-N-methyl-2-(3-(o-tolylsulfonyl)ureido)-3-(1H-1,2,4-triazol-1-yl)propanamide], under setting [2], the EC50 was over 100000 nM.
In the case of `CN(C(=O)[C@H](Cc1ccccc1)NC(=O)NS(=O)(=O)c1ccccc1)c1ccc2c(c1)OCO2` [Example 1, (S)—N-(benzo[d][1,3]dioxol-5-yl)-N-methyl-3-phenyl-2-(3-(phenylsulfonyl)ureido)propanamide], the EC50 under setting [1] is 100 to 1000 nM and the EC50 under setting [2] was found to be 260 nM.
`C=CCOc1ccc(N(C)C(=O)[C@H](Cc2ccccc2)NC(=O)NS(=O)(=O)c2ccccc2C)cc1` [Example 216, (S)—N-(4-(allyloxy)phenyl)-N-methyl-3-phenyl-2-(3-(o-tolylsulfonyl)ureido)propanamide]: the EC50 under setting [1] is under 100 nM.
For `Cc1ccccc1S(=O)(=O)NC(=O)N[C@@H](Cc1ccccc1)C(=O)N(C)c1ccc(OCC(N)=O)cc1` [Example 217, (S)—N-(4-(2-amino-2-oxoethoxy)phenyl)-N-methyl-3-phenyl-2-(3-(o-tolylsulfonyl)ureido)propanamide], under setting [1], the EC50 was 100 to 1000 nM.
On the same count and under the same terms, the figure for `Cc1ccccc1S(=O)(=O)NC(=O)N[C@@H](Cc1ccccc1)C(=O)N1CCCc2ccccc21` [Example 170, (S)—N-((1-(3,4-dihydroquinolin-1(2H)-yl)-1-oxo-3-phenylpropan-2-yl)carbamoyl)-2-methylbenzenesulfonamide] is 1000 to 10000 nM.
Same read-out and setting: the result for `Cc1ccccc1S(=O)(=O)NC(=O)N[C@@H](Cc1ccccc1)C(=O)N(C)c1ccc(C#N)cc1` [Example CA-97, (S)—N-(4-cyanophenyl)-N-methyl-3-phenyl-2-(3-(o-tolylsulfonyl)ureido)propanamide] reads 100 to 1000 nM; that for `CNS(=O)(=O)c1cccc(N(C)C(=O)[C@H](Cc2cc(F)cc(F)c2)NC(=O)NS(=O)(=O)c2ccccc2C)c1` [Example CA-106, (S)-3-(3,5-difluorophenyl)-N-methyl-N-(3-(N-methylsulfamoyl)phenyl)-2-(3-(o-tolylsulfonyl)ureido)propanamide], 1000 to 10000 nM.
On the same count and under the same terms, the figure for `Cc1ccccc1S(=O)(=O)NC(=O)N[C@@H](Cc1cccc(C#N)c1)C(=O)N(C)c1ccc2c(c1)OCO2` [Example 62, (S)—N-(benzo[d][1,3]dioxol-5-yl)-3-(3-cyanophenyl)-N-methyl-2-(3-(o-tolylsulfonyl)ureido)propanamide] is 1000 to 10000 nM; for `CN(C(=O)[C@H](Cc1cc(F)cc(F)c1)NC(=O)NS(=O)(=O)c1ccccc1F)c1ccc2c(c1)OC(F)(F)O2` [Example 35, (S)—N-(2,2-difluorobenzo[d][1,3]dioxol-5-yl)-3-(3,5-difluorophenyl)-2-(3-((2-fluorophenyl)sulfonyl)ureido)-N-methylpropanamide] it is 100 to 1000 nM.
Consider `Cc1ccccc1S(=O)(=O)NC(=O)N[C@H](C(=O)N(C)c1ccc2c(c1)OCO2)[C@@H](C)c1ccccc1` [Example 65, (2S,3S)—N-(benzo[d][1,3]dioxol-5-yl)-N-methyl-3-phenyl-2-(3-(o-tolylsulfonyl)ureido)butanamide], for which the EC50 was 1000 to 10000 nM under setting [1] and 6830 nM under setting [2].
On to `CN(C(=O)[C@H](Cc1ccccc1)NC(=O)NS(=O)(=O)c1ccccc1C(F)(F)F)c1ccc2c(c1)OCO2` [Example 17, (S)—N-(benzo[d][1,3]dioxol-5-yl)-N-methyl-3-phenyl-2-(3-((2-(trifluoromethyl)phenyl)sulfonyl)ureido)propanamide], for which the EC50 under setting [1] fell in the range of 100 to 1000 nM.
The same measure, in the same setting: the result for `COc1cc(C)c(N(C)C(=O)[C@H](Cc2ccccc2)NC(=O)NS(=O)(=O)c2ccccc2C)cc1C` [Example JB-84, (S)—N-(4-methoxy-2,5-dimethylphenyl)-N-methyl-3-phenyl-2-(3-(o-tolylsulfonyl)ureido)propanamide] reads 100 to 1000 nM; that for `CCN(C(=O)[C@H](Cc1ccccc1)NC(=O)NS(=O)(=O)c1cccc(-c2ccsc2Cl)c1)c1ccc(OC)cc1` [Example 150, (S)-2-(3-((3-(2-chlorothiophen-3-yl)phenyl)sulfonyl)ureido)-N-ethyl-N-ethyl-N-(4-methoxyphenyl)-3-phenylpropanamide], 100 to 1000 nM; that for `Cc1ccccc1S(=O)(=O)NC(=O)N[C@@H](Cc1ccc(Br)cc1)C(=O)N(C)c1ccc2c(c1)OCO2` [Example 57, (S)—N-(benzo[d][1,3]dioxol-5-yl)-3-(4-bromophenyl)-N-methyl-2-(3-(o-tolylsulfonyl)ureido)propanamide], 1000 to 10000 nM.
On to `Cc1ccccc1S(=O)(=O)NC(=O)N[C@@H](Cc1ccccc1)C(=O)N1CCc2cc(S(=O)(=O)N(C)C)ccc21` [Example 185, (S)—N,N-dimethyl-1-(3-phenyl-2-(3-(o-tolylsulfonyl)ureido)propanoyl)indoline-5-sulfonamide], for which the EC50 under setting [1] is 1000 to 10000 nM.
`CN(C(=O)[C@H](Cc1ccccc1)NC(=O)NS(=O)(=O)c1cccs1)c1ccc2c(c1)OCO2` [Example 31, (S)—N-(benzo[d][1,3]dioxol-5-yl)-N-methyl-3-phenyl-2-(3-(thiophen-2-ylsulfonyl)ureido)propanamide]: the EC50 under setting [1] was in the range of 100 to 1000 nM.
`Cc1ccccc1S(=O)(=O)NC(=O)N[C@@H](Cc1ccccc1)C(=O)N(C)c1cccc(C#N)c1` [Example CA-91, (S)—N-(3-cyanophenyl)-N-methyl-3-phenyl-2-(3-(o-tolylsulfonyl)ureido)propanamide]: the EC50 under setting [1] lay within 100 to 1000 nM.
